This is an account of results in patent US10858335B2 (Rigel Pharmaceuticals, Inc., priority 2014, dated 2020).

SMILES strings stand for the structures. Counter-ions that a name gives are not always drawn.

This assay has as its system GDF8 signaling (p-SMAD-3 (Ser423/425)). Description: AlphaScreen SureFire SMAD3 (p-Ser423/425) assay, GDF8-stimulated cells (GDF pSMAD). In kind it is cell-based. The note with it: Mus musculus, MPC-11, MPC11; GDF8-stimulated; p-SMAD3 AlphaScreen; read-out: GDF pSMAD (MPC11) (inhibition of GDF8 signaling).
Regarding `Cc1cc(-c2ncccc2-c2ccc3ncc(C(=O)Nc4cccc(C(N)=O)c4)n3c2)ccc1F` [compound 619, N-(3-Carbamoylphenyl)-6-(2-(4-fluoro-3-methylphenyl)pyridin-3-yl)imidazo[1,2-a]pyridine-3-carboxamide], the IC50 is 0.544 µM.
With `N#Cc1cnc2ccc(-c3cccnc3-c3cccc(F)c3)cn12` [compound 621, 6-(2-(3-Fluorophenyl)pyridin-3-yl)imidazo[1,2-a]pyridine-3-carbonitrile], the IC50 was 3.93 µM.
For `N#Cc1cnc2ccc(-c3cccnc3-c3ccc(F)c(F)c3)cn12` [compound 622, 6-(2-(3,4-Difluorophenyl)pyridin-3-yl)imidazo[1,2-a]pyridine-3-carbonitrile] the value was 3.63 µM.
`N#Cc1cnc2ccc(-c3cccnc3-c3ccccc3F)cn12` [compound 623, 6-(2-(2-Fluorophenyl)pyridin-3-yl)imidazo[1,2-a]pyridine-3-carbonitrile]: the IC50 worked out at 6.87 µM.
On to `Cc1ccc(F)c(-c2ncccc2-c2ccc3ncc(C#N)n3c2)c1` [compound 624, 6-(2-(2-Fluoro-5-methylphenyl)pyridin-3-yl)imidazo[1,2-a]pyridine-3-carbonitrile], for which the IC50 came to 0.161 µM.
`N#Cc1cnc2ccc(-c3cccnc3-c3ccc(F)cc3)cn12` [compound 625, 6-(2-(4-Fluorophenyl)pyridin-3-yl)imidazo[1,2-a]pyridine-3-carbonitrile]: the IC50 is 7.79 µM.
The same measure for `COc1cccc(-c2ncccc2-c2ccc3ncc(C#N)n3c2)c1` [compound 626, 6-(2-(3-Methoxyphenyl)pyridin-3-yl)imidazo[1,2-a]pyridine-3-carbonitrile]: 0.346 µM; for `N#Cc1cccc(-c2ncccc2-c2ccc3ncc(C#N)n3c2)c1` [compound 627, 6-(2-(3-Cyanophenyl)pyridin-3-yl)imidazo[1,2-a]pyridine-3-carbonitrile]: 1.26 µM.
For `N#Cc1cc(-c2ncccc2-c2ccc3ncc(C#N)n3c2)ccc1F` [compound 628, 6-(2-(3-Cyano-4-fluorophenyl)pyridin-3-yl)imidazo[1,2-a]pyridine-3-carbonitrile] the value was 1.71 µM; for `Cc1cc(-c2ncccc2-c2ccc3c(cnn3C(=O)OC[C@H](N)Cc3c[nH]c4ccccc34)c2)ccc1F` [compound 629, (R)-2-Amino-3-(1H-indol-3-yl)propyl 5-(2-(4-fluoro-3-methylphenyl)pyridin-3-yl)-1H-indazole-1-carboxylate TFA salt], 0.132 µM.
For `COc1cc(NC(=O)n2ncc3cc(-c4cccnc4-c4ccc(F)c(C)c4)ccc32)cc(OC)c1OC` [compound 630, 5-(2-(4-Fluoro-3-methylphenyl)pyridin-3-yl)-N-(3,4,5-trimethoxyphenyl)-1H-indazole-1-carboxamide] the value was 4.15 µM; for `Cc1cc(-c2ncccc2-c2ccc3c(cnn3C(=O)NCCN(C)C)c2)ccc1F` [compound 633, N-(2-(Dimethylamino)ethyl)-5-(2-(4-fluoro-3-methylphenyl)pyridin-3-yl)-1H-indazole-1-carboxamide], 11.3 µM.
For the compound `Cc1cc(-c2ncccc2-c2ccc3c(cnn3C(=O)NCCCN(C)C)c2)ccc1F` [compound 634, N-(3-(Dimethylamino)propyl)-5-(2-(4-fluoro-3-methylphenyl)pyridin-3-yl)-1H-indazole-1-carboxamide], the IC50 came to 14.8 µM.
The same measure for `Cc1cc(-c2ncccc2-c2ccc3c(cnn3C(=O)NCCN3CCCC3)c2)ccc1F` [compound 636, 5-(2-(4-Fluoro-3-methylphenyl)pyridin-3-yl)-N-(2-(pyrrolidin-1-yl)ethyl)-1H-indazole-1-carboxamide]: 8.69 µM; for `Cc1cc(-c2ncccc2-c2ccc3c(cnn3C(=O)NCCN)c2)ccc1F` [compound 639, N-(2-Aminoethyl)-5-(2-(4-fluoro-3-methylphenyl)pyridin-3-yl)-1H-indazole-1-carboxamide]: 10.6 µM; for `Cc1cc(-c2ncccc2-c2ccc3c(cnn3C(=O)NCCCN)c2)ccc1F` [compound 640, N-(3-Aminopropyl)-5-(2-(4-fluoro-3-methylphenyl)pyridin-3-yl)-1H-indazole-1-carboxamide]: 19.2 µM.
The same measure for `Cc1cc(-c2ncccc2-c2ccc3ncc(C(=O)NCC4CCN(C)CC4)n3c2)ccc1F` [compound 651, 6-(2-(4-Fluoro-3-methylphenyl)pyridin-3-yl)-N-((1-methylpiperidin-4-yl)methyl)imidazo[1,2-a]pyridine-3-carboxamide]: 1.18 µM; for `Cc1cc(-c2ncccc2-c2ccc3ncc(C(=O)NC4CCNCC4)n3c2)ccc1F` [compound 652, 6-(2-(4-Fluoro-3-methylphenyl)pyridin-3-yl)-N-(piperidin-4-yl)imidazo[1,2-a]pyridine-3-carboxamide]: 3.78 µM.
For `Cc1cc(-c2ncccc2-c2ccc3ncc(C(=O)NCCCn4ccnc4)n3c2)ccc1F` [compound 653, N-(3-(1H-Imidazol-1-yl)propyl)-6-(2-(4-fluoro-3-methylphenyl)pyridin-3-yl)imidazo[1,2-a]pyridine-3-carboxamide] the value was 1.04 µM.
Turning to `Cc1cc(-c2ncccc2-c2ccc3ncc(C(=O)Nc4ccncc4)n3c2)ccc1F` [compound 654, 6-(2-(4-Fluoro-3-methylphenyl)pyridin-3-yl)-N-(pyridin-4-yl)imidazo[1,2-a]pyridine-3-carboxamide], the IC50 came out at 0.553 µM.
As to `Cc1cc(-c2ncccc2-c2ccn3ncc(C(=O)NC4CCN(C)CC4)c3c2)ccc1F` [compound 655, 5-(2-(4-Fluoro-3-methylphenyl)pyridin-3-yl)-N-(1-methylpiperidin-4-yl)pyrazolo[1,5-a]pyridine-3-carboxamide], the IC50 was 0.245 µM.
The same measure for `Cc1cc(-c2ncccc2-c2ccn3ncc(C(=O)NCC4CCN(C)CC4)c3c2)ccc1F` [compound 656, 5-(2-(4-Fluoro-3-methylphenyl)pyridin-3-yl)-N-((1-methylpiperidin-4-yl)methyl)pyrazolo[1,5-a]pyridine-3-carboxamide]: 0.55 µM.
For `Fc1ccccc1-c1ncccc1-c1ccc2ncsc2c1` [compound 657, 6-(2-(2-Fluorophenyl)pyridin-3-yl)benzo[d]thiazole] the value was 3.49 µM; for `Fc1cccc(-c2ncccc2-c2ccc3ncsc3c2)c1` [compound 658, 6-(2-(3-Fluorophenyl)pyridin-3-yl)benzo[d]thiazole], 1.5 µM.
Consider `Fc1ccc(-c2ncccc2-c2ccc3ncsc3c2)cc1` [compound 659, 6-(2-(4-Fluorophenyl)pyridin-3-yl)benzo[d]thiazole], for which the IC50 was found to be 2.01 µM.
For `Fc1cc(F)cc(-c2ncccc2-c2ccc3ncsc3c2)c1` [compound 660, 6-(2-(3,5-Difluorophenyl)pyridin-3-yl)benzo[d]thiazole] the value was 2.24 µM; for `Fc1ccc(-c2ncccc2-c2ccc3ncsc3c2)cc1F` [compound 661, 6-(2-(3,4-Difluorophenyl)pyridin-3-yl)benzo[d]thiazole], 1.84 µM; for `Fc1cccc(-c2ncccc2-c2ccc3ncsc3c2)c1F` [compound 662, 6-(2-(2,3-Difluorophenyl)pyridin-3-yl)benzo[d]thiazole], 9.64 µM.
In the case of `Cc1cc(-c2ncccc2-c2ccn3ncc(C(=O)N[C@@H]4CCCC[C@H]4N)c3c2)ccc1F` [compound 663, N-((1R,2R)-2-Aminocyclohexyl)-5-(2-(4-fluoro-3-methylphenyl)pyridin-3-yl)pyrazolo[1,5-a]pyridine-3-carboxamide], the IC50 came out at 8.09 µM.
Turning to `Cc1cc(-c2ncccc2-c2ccn3ncc(C(=O)N[C@H]4CCCC[C@@H]4N)c3c2)ccc1F` [compound 664, N-((1S,2S)-2-Aminocyclohexyl)-5-(2-(4-fluoro-3-methylphenyl)pyridin-3-yl)pyrazolo[1,5-a]pyridine-3-carboxamide], the IC50 is 1.38 µM.
Take `Fc1ccc(-c2ncccc2-c2ccc3ncsc3c2)c(F)c1` [compound 665, 6-(2-(2,4-Difluorophenyl)pyridin-3-yl)benzo[d]thiazole]: the IC50 amounted to 2.36 µM.
For `Fc1cc(-c2ncccc2-c2ccc3ncsc3c2)cc(F)c1F` [compound 666, 6-(2-(3,4,5-Trifluorophenyl)pyridin-3-yl)benzo[d]thiazole] the value was 3.97 µM.
For `Cc1ccc(F)c(-c2ncccc2-c2ccc3ncsc3c2)c1` [compound 667, 6-(2-(2-Fluoro-5-methylphenyl)pyridin-3-yl)benzo[d]thiazole] the value was 0.226 µM.
The same measure for `Clc1cccc(-c2ncccc2-c2ccc3ncsc3c2)c1` [compound 668, 6-(2-(3-Chlorophenyl)pyridin-3-yl)benzo[d]thiazole]: 0.313 µM; for `COc1cccc(-c2ncccc2-c2ccc3ncsc3c2)c1` [compound 669, 6-(2-(3-Methoxyphenyl)pyridin-3-yl)benzo[d]thiazole]: 0.499 µM.
Regarding `N#Cc1cccc(-c2ncccc2-c2ccc3ncsc3c2)c1` [compound 670, 3-(3-(Benzo[d]thiazol-6-yl)pyridin-2-yl)benzonitrile], the IC50 was 0.367 µM.
For `Cc1cc(-c2ncccc2-c2ccn3ncc(C(=O)NCCCN4CCOCC4)c3c2)ccc1F` [compound 672, 5-(2-(4-Fluoro-3-methylphenyl)pyridin-3-yl)-N-(3-morpholinopropyl)pyrazolo[1,5-a]pyridine-3-carboxamide] the value was 0.273 µM; for `Cc1cc(-c2ncccc2-c2ccn3ncc(C(=O)NCCN(C)C)c3c2)ccc1F` [compound 673, N-(2-(Dimethylamino)ethyl)-5-(2-(4-fluoro-3-methylphenyl)pyridin-3-yl)pyrazolo[1,5-a]pyridine-3-carboxamide], 0.375 µM.
The same measure for `Cc1cc(-c2ncccc2-c2ccn3ncc(C(=O)NCCN4CCOCC4)c3c2)ccc1F` [compound 674, 5-(2-(4-Fluoro-3-methylphenyl)pyridin-3-yl)-N-(2-morpholinoethyl)pyrazolo[1,5-a]pyridine-3-carboxamide]: 0.211 µM.
